# In BindingDB's records for doi:10.1021/jm00350a005 (1982):
# pIC50, pKd: −log10 of the molar value.
# Key:
# [1] = molecular target: 5-hydroxytryptamine receptor 1A/1B/1D/1E/1F/2A/2B/2C/3A/3B/3C/3D/3E/4/5A/6/7; test: Ability to displace [3H]5-HT binding to 5-hydroxytryptamine receptor using 1 uM LSD as masking ligand, activity is expressed as Kd.
# [2] = molecular target: 5-hydroxytryptamine receptor 1A/1B/1D/1E/1F/2A/2B/2C/3A/3B/3C/3D/3E/4/5A/6/7; test: Ability to displace [3H]5-HT binding to 5-hydroxytryptamine receptor site using 1 uM LSD as masking ligand, […].
# [3] = molecular target: 5-hydroxytryptamine receptor 1A/1B/1D/1E/1F/2A/2B/2C/3A/3B/3C/3D/3E/4/5A/6/7; test: Ability to displace [3H]5-HT binding from 5-hydroxytryptamine receptor site using 1 uM LSD as masking ligand
# [4] = molecular target: 5-hydroxytryptamine receptor 1A/1B/1D/1E/1F/2A/2B/2C/3A/3B/3C/3D/3E/4/5A/6/7; test: Ability to displace [3H]5-HT binding to 5-hydroxytryptamine receptor site using 1 uM LSD as masking ligand
smiles,measurement,setting,value
CSc1ccc2[nH]cc(CCN(C)C)c2c1,pKd,[1],7.37
CN(C)CCc1c[nH]c2cc3c(cc12)OCO3,pKd,[2],5.08
CC(C)N(CCc1c[nH]c2cc3c(cc12)OCO3)C(C)C,pIC50,[3],3.03
CSc1cccc2[nH]cc(CCN(C)C)c12,pIC50,[4],3.82
same,pKd,[2],5.08
